Our source for the inhibition of growth and pest or weed control values is US20200187502A1, “MICROBIOCIDAL OXADIAZOLE DERIVATIVES” (SYNGENTA PARTICIPATIONS AG, priority 2017, published 2020).

The test system of experiment [1] is Glomerella lacenarium (Colletotrichum lacenarium). Put plainly: Fungicidal activity, liquid culture, cucumber preventative (anthracnose). The format is cell-based. Particulars: 20 ppm in the applied formulation, liquid culture in PDB, inhibition of growth measured photometrically 3 to 4 days after application, compared to untreated control, read-out: disease control. The procedure, abridged:
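Photometric measurement of fungal growth inhibition 3 to 4 days after application gives percent activity relative to untreated check. Conidia were suspended in potato dextrose broth and combined with DMSO compound solutions; incubation at 24° C.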

Another experiment concerns Phakopsora pachyrhizi. Description: Fungicidal activity, soybean leaf disc preventative (Asian soybean rust). Type of experiment: in vivo. To be noted: foliar, 200 ppm in the applied formulation, soybean leaf disks, compared to untreated control, 12 to 14 days after application, read-out: disease control. On the procedure:
Leaf disks or leaf segments of various plant species are cut from plants grown in a greenhouse. The cut leaf disks or segments are placed in multiwell plates (24-well format) onto water agar. The leaf disks are sprayed with a test solution before (preventative) or after (curative) inoculation. Compounds to be tested are prepared as DMSO solutions (max. 10 mg/ml) which are diluted to the appropriate concentration with 0.025% Tween20 just before spraying. The inoculated leaf disks or segments are incubated under defined conditions (temperature, relative humidity, light, etc.) according to the respective test system. A single evaluation of disease level is carried out 3 to 14 days after inoculation, depending on the pathosystem. Percent disease control relative to the untreated check leaf disks or segments is then calculated.
Soybean leaf disks are placed on water agar in multiwell plates (24-well format) and sprayed with the formulated test compound diluted in water. One day after application leaf discs are inoculated by spraying a spore suspension on the lower leaf surface. After an incubation period in a climate cabinet of 24-36 hours in darkness at 20° C. and 75% rh leaf disc are kept at 20° C. with 12 h light/day and 75% rh. The activity of a compound is assessed as percent disease control compared to untreated when an appropriate level of disease damage appears in untreated check leaf disks (12 to 14 days after application).
The following compounds at 200 ppm in the applied formulation give at least 80% disease control in this test when compared to untreated control leaf disks under the same conditions, which show extensive disease development.

The test system of experiment [2] is Puccinia recondita f. Sp. Tritici. Description: Fungicidal activity, wheat leaf disc preventative (brown rust). Type of experiment: in vivo. To be noted: foliar, 200 ppm in the applied formulation, wheat leaf segments cv. Kanzler, compared to untreated control, 7 to 9 days after application, read-out: disease control. The procedure, abridged:
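Wheat cv. Kanzler leaf segments on agar were sprayed with formulated compound in water, then inoculated with spores 1 day later. Incubated at 19° C, 75% rh, 12 h light/12 h dark; percent disease control versus untreated scored 7 to 9 days after application.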

The test system is the same in experiment [3]. Put plainly: Fungicidal activity, wheat leaf disc curative (brown rust). Type of experiment: in vivo. Particulars: foliar, 200 ppm in the applied formulation, wheat leaf segments cv. Kanzler, curative (applied 1 day after inoculation), compared to untreated control, 6 to 8 days after application, read-out: disease control. The procedure, abridged:
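Read-out is percent disease control relative to untreated segments, assessed 6 to 8 days after treatment once check disease is adequate. Kanzler wheat leaf segments on agar receive fungal spores, then test compound (DMSO stock diluted in 0.025% Tween20 or water) 1 day later, under 19° C and 75% relative humidity.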

In the case of `CN(Cc1ccc(-c2noc(C(F)(F)F)n2)s1)C(=O)N1CCCO1` [Compound 5.56, N-methyl-N-[[5-[5-(trifluoromethyl)-1,2,4-oxadiazol-3-yl]-2-thienyl]methyl]isoxazolidine-2-carboxamide], the inhibition of growth at 20 ppm in experiment [1] was no less than 80%. Moreover, the pest or weed control at 200 ppm (in the experiment with Phakopsora pachyrhizi; in experiment [2]) was no less than 80% throughout.

Turning to `CN(Cc1ccc(-c2noc(C(F)(F)F)n2)s1)S(=O)(=O)Cc1ccccc1` [Compound 6.22, N-methyl-1-phenyl-N-[[5-[5-(trifluoromethyl)-1,2,4-oxadiazol-3-yl]-2-thienyl]methyl]methanesulfonamide], in experiment [1], the inhibition of growth at 20 ppm is no less than 80%. The pest or weed control at 200 ppm (with Phakopsora pachyrhizi; in experiment [2]) was no less than 80% each time.

For `CCN(Cc1ccc(-c2noc(C(F)(F)F)n2)s1)S(=O)(=O)CCOC` [Compound 6.12, N-ethyl-2-methoxy-N-[[5-[5-(trifluoromethyl)-1,2,4-oxadiazol-3-yl]-2-thienyl]methyl]ethanesulfonamide], in experiment [1], the inhibition of growth at 20 ppm was no less than 80%. Further, the pest or weed control at 200 ppm (in the experiment on Phakopsora pachyrhizi; in experiment [2]) was no less than 80% each time.

In the case of `CON(Cc1ccc(-c2noc(C(F)(F)F)n2)s1)C(=O)C(C)C` [Compound 1.26, N-methoxy-2-methyl-N-[[5-[5-(trifluoromethyl)-1,2,4-oxadiazol-3-yl]-2-thienyl]methyl]propanamide], the inhibition of growth at 20 ppm in experiment [1] was no less than 80%. For the same molecule, the pest or weed control at 200 ppm (in the experiment with Phakopsora pachyrhizi; in experiment [2]) was no less than 80% each time.

Turning to `CCCS(=O)(=O)N(CC)Cc1ccc(-c2noc(C(F)(F)F)n2)s1` [Compound 6.20, N-ethyl-N-[[5-[5-(trifluoromethyl)-1,2,4-oxadiazol-3-yl]-2-thienyl]methyl]propane-1-sulfonamide], in experiment [1], the inhibition of growth at 20 ppm is no less than 80%. The pest or weed control at 200 ppm (in the experiment with Phakopsora pachyrhizi; in experiment [2]) was no less than 80% each time.

With `CCN(Cc1ccc(-c2noc(C(F)(F)F)n2)s1)C(C)=O` [Compound 4.31, N-ethyl-N-[[5-[5-(trifluoromethyl)-1,2,4-oxadiazol-3-yl]-2-thienyl]methyl]acetamide], in experiment [1], the inhibition of growth at 20 ppm is no less than 80%. The pest or weed control at 200 ppm (in the experiment on Phakopsora pachyrhizi; in experiment [2]) was no less than 80% throughout.

Turning to `CCN(Cc1ccc(-c2noc(C(F)(F)F)n2)s1)S(=O)(=O)N(C)C` [Compound 6.18, N-(dimethylsulfamoyl)-N-[[5-[5-(trifiuoromethyl)-1,2,4-oxadiazol-3-yl]-2-thienyl]methyl]ethanamine], in experiment [1], the inhibition of growth at 20 ppm was no less than 80%. Besides, the pest or weed control at 200 ppm (with Phakopsora pachyrhizi; in experiment [2]) was no less than 80% in each case.

Take `CC(=O)NCC(=O)NCc1ccc(-c2noc(C(F)(F)F)n2)s1` [Compound 2.2, 2-acetamido-N-[[5-[5-(trifluoromethyl)-1,2,4-oxadiazol-3-yl]-2-thienyl]methyl]acetamide]: in the experiment on Phakopsora pachyrhizi, the pest or weed control at 200 ppm is no less than 80%.

Turning to `CCN(Cc1ccc(-c2noc(C(F)(F)F)n2)s1)S(=O)(=O)CC` [Compound 6.14, N-ethyl-N-[[5-[5-(trifluoromethyl)-1,2,4-oxadiazol-3-yl]-2-thienyl]methyl]ethanesulfonamide], the inhibition of growth at 20 ppm in experiment [1] is no less than 80%. Moreover, in the experiment on Phakopsora pachyrhizi, the pest or weed control at 200 ppm is no less than 80%.

For the molecule `COCC(=O)N(Cc1ccc(-c2noc(C(F)(F)F)n2)s1)C(C)C` [Compound 4.42, N-isopropyl-2-methoxy-N-[[5-[5-(trifluoromethyl)-1,2,4-oxadiazol-3-yl]-2-thienyl]methyl]acetamide], the inhibition of growth at 20 ppm in experiment [1] was no less than 80%. Also, the pest or weed control at 200 ppm in experiment [2] and in experiment [3] was no less than 80% in each case.

Take `CCCC(=O)N(C)Cc1ccc(-c2noc(C(F)(F)F)n2)s1` [Compound 4.34, N-methyl-N-[[5-[5-(trifluoromethyl)-1,2,4-oxadiazol-3-yl]-2-thienyl]methyl]butanamide]: the inhibition of growth at 20 ppm in experiment [1] is no less than 80%. The pest or weed control at 200 ppm in experiment [2] and in experiment [3] was no less than 80% each time.

`CC(C)C(=O)N(Cc1ccc(-c2noc(C(F)(F)F)n2)s1)C(C)C` [Compound 4.11, N-isopropyl-2-methyl-N-[[5-[5-(trifluoromethyl)-1,2,4-oxadiazol-3-yl]-2-thienyl]methyl]propanamide]: the inhibition of growth at 20 ppm in experiment [1] is no less than 80%. Besides, the pest or weed control at 200 ppm in experiment [2] and in experiment [3] was no less than 80% throughout.

`CCN(Cc1ccc(-c2noc(C(F)(F)F)n2)s1)C(=O)COC` [Compound 4.22, N-ethyl-2-methoxy-N-[[5-[5-(trifluoromethyl)-1,2,4-oxadiazol-3-yl]-2-thienyl]methyl]acetamide]: in experiment [1], the inhibition of growth at 20 ppm was no less than 80%. In addition, the pest or weed control at 200 ppm (in the experiment with Phakopsora pachyrhizi; in experiment [2]) was no less than 80% each time.

For `CN(Cc1ccc(-c2noc(C(F)(F)F)n2)s1)C(=O)C(=O)c1ccccc1` [Compound 6.47, N-methyl-2-oxo-2-phenyl-N-[[5-[5-(trifluoromethyl)-1,2,4-oxadiazol-3-yl]-2-thienyl]methyl]acetamide], in experiment [1], the inhibition of growth at 20 ppm is no less than 80%. Further, the pest or weed control at 200 ppm in experiment [2] and in experiment [3] was no less than 80% in each case.

In the case of `COCCN(CCOC)C(=O)N(C)Cc1ccc(-c2noc(C(F)(F)F)n2)s1` [Compound 4.80, 1,1-bis(2-methoxyethyl)-3-methyl-3-[[5-[5-(trifluoromethyl)-1,2,4-oxadiazol-3-yl]-2-thienyl]methyl]urea], in experiment [1], the inhibition of growth at 20 ppm was no less than 80%. Also, the pest or weed control at 200 ppm in experiment [2] and in experiment [3] was no less than 80% in each case.

In the case of `CCOC(=O)N(Cc1ccc(-c2noc(C(F)(F)F)n2)s1)OC` [Compound 1.28, ethyl N-methoxy-N-[[5-[5-(trifluoromethyl)-1,2,4-oxadiazol-3-yl]-2-thienyl]methyl]carbamate], in experiment [1], the inhibition of growth at 20 ppm is no less than 80%. In addition, the pest or weed control at 200 ppm in experiment [2] and in experiment [3] was no less than 80% in each case.

Turning to `CCN(Cc1ccc(-c2noc(C(F)(F)F)n2)s1)C(=O)C1CCCO1` (stereo not drawn) [Compound 5.13, N-ethyl-N-[[5-[5-(trifluoromethyl)-1,2,4-oxadiazol-3-yl]-2-thienyl]methyl]tetrahydrofuran-2-carboxamide], the inhibition of growth at 20 ppm in experiment [1] was no less than 80%. Besides, the pest or weed control at 200 ppm in experiment [2] and in experiment [3] was no less than 80% throughout.

As to `CCN(Cc1ccc(-c2noc(C(F)(F)F)n2)s1)C(=O)C(C)=O` [Compound 6.6, N-ethyl-2-oxo-N-[[5-[5-(trifluoromethyl)-1,2,4-oxadiazol-3-yl]-2-thienyl]methyl]propanamide], in experiment [1], the inhibition of growth at 20 ppm was no less than 80%. Moreover, the pest or weed control at 200 ppm in experiment [2] and in experiment [3] was no less than 80% throughout.

`CCN(Cc1ccc(-c2noc(C(F)(F)F)n2)s1)C(=O)C(C)OC` (stereo not drawn) [Compound 4.6, N-ethyl-2-methoxy-N-[[5-[5-(trifluoromethyl)-1,2,4-oxadiazol-3-yl]-2-thienyl]methyl]propanamide]: the inhibition of growth at 20 ppm in experiment [1] was no less than 80%. For the same molecule, the pest or weed control at 200 ppm in experiment [2] and in experiment [3] was no less than 80% each time.

Take `CC(=O)NCC(=O)N(Cc1ccc(-c2noc(C(F)(F)F)n2)s1)C(C)C` [Compound 4.43, 2-acetamido-N-isopropyl-N-[[5-[5-(trifluoromethyl)-1,2,4-oxadiazol-3-yl]-2-thienyl]methyl]acetamide]: in experiment [1], the inhibition of growth at 20 ppm is no less than 80%. The pest or weed control at 200 ppm in experiment [2] and in experiment [3] was no less than 80% in each case.

Consider `CNS(=O)(=O)N(Cc1ccc(-c2noc(C(F)(F)F)n2)s1)OC` [Compound 1.32, 3-[5-[[methoxy(methylsulfamoyl)amino]methyl]-2-thienyl]-5-(trifluoromethyl)-1,2,4-oxadiazole], for which, in experiment [1], the inhibition of growth at 20 ppm was no less than 80%. The pest or weed control at 200 ppm in experiment [2] and in experiment [3] was no less than 80% throughout.
